In patent publication US20040006103A1, “Use of chloroquine, hydroxychloroquine and 4 amino-quinolinic derivatives to obtain a drug for the anti retroviral therapy, active towards HIV sensitive strains and towards HIV strains which are resistant to both nucleosidic and non-nucleosidic reverse transcriptase inhibitors and to proteases …” (VALPHARMA S.A., priority 2002, published 2004):
Read-outs that look alike come from different tables or passages of the source.

Key:
[1] = test system: HIV clinical isolated, characterised by mutations in the RT gene inducing geno-phenotypic resistance to ddI; assay: p24 production susceptibility test (ACTG protocol), Table 2; assay type: cell-based, HIV-1; conditions: for EC50: Human immunodeficiency virus 1, PBMC, read-out: E.C.50 CQ; for S.I. CQ / Fen. CQ (fold): PBMC; for S.I. CQ: I.C.50/E.C.50; for Fen. CQ (fold): ratio to HIV-IIIB
Description: (§1) For the phenotype of the nucleosidic, non-nucleosidic and proteases inhibitors was utilised a method which consider the use of human PBMC and the protocol standardised by the AIDS Clinical Trials Group, after verifying the genotype by sequence analysis.
(§2) In order to assay in vitro the susceptibility to chloroquine and hydroxychloroquine of the viral strains, it was used the protocol of the ACTG which is characterised by the measure, of the production of antigen p24 in strongly infected cells.
(§3) The susceptibility of the viral strains to chemotherapics was determined in cell cultures, prepared in 96 wells microplates, using, for the infection, 0.1 MOI.
(§4) The supernatant of the infected cultures (either in absence or in presence of different concentrations of chemotherapic) were tested for the production of p24 after 7 days, using an ELISA test which is commercially available.
(§5) The concentrations of chloroquine and hydroxychloroquine tested ranged from 0.5 to 15 uM. At the same time non-infected cells were incubated with concentrations of chloroquine and hydroxychloroquine ranging from 0 to 50 uM to evaluate the toxicity of the compound.
(§6) After 4 day from the infection, half the cellular medium was replaced with a medium containing the corresponding dilution of chloroquine and hydroxychloroquine. The percentage of inhibition of the HIV replication, induced by chloroquine and hydroxychloroquine, was determined, after 7 day from the infection, comparing the levels of p24 of this cultures and that of the control, infected and not treated with chloroquine and hydroxychloroquine.
(§7) Therefore, the E.C.50 of chloroquine and hydroxychloroquine expresses the concentration of chemotherapic that inhibits the 50% of production of p24 and the values were calculated using linear and non linear regression analysis (the significativity for the non linear regression was R^2>0.95).
(§8) In the same experimental conditions and in the same day, but with similar concentrations of chloroquine and hydroxychloroquine, it was evaluated the vitality of the infect cell cultures, and this was expressed as I.C.50.
(§9) I.C.50 (Inhibitory Concentration) indicates the concentration of the chemotherapic agent inhibiting the vitality of the cell cultures at a rate of 50%, when there is not infection.

[2] = test system: HIV-1 clinical isolated, characterised by mutations in the RT gene inducing geno-phenotypic resistance to d4T; assay: p24 production susceptibility test (ACTG protocol), Table 4; assay type: cell-based; conditions: for EC50: Human immunodeficiency virus 1, PBMC, read-out: E.C.50 CQ; for S.I. CQ / Fen. CQ (fold): PBMC; for S.I. CQ: I.C.50/E.C.50; for Fen. CQ (fold): ratio to HIV-IIIB
Description: as §1, §2, §3, §4, §5, §6, §7, §8, §9

[3] = test system: HIV-1 clinical isolated, characterised by mutations in the RT gene inducing geno-phenotypic resistance to ABC; assay: p24 production susceptibility test (ACTG protocol), Table 5; assay type: cell-based; conditions: for EC50: Human immunodeficiency virus 1, PBMC, read-out: E.C.50 CQ; for S.I. CQ / Fen. CQ (fold): PBMC; for S.I. CQ: I.C.50/E.C.50; for Fen. CQ (fold): ratio to HIV-IIIB
Description: as §1, §2, §3, §4, §5, §6, §7, §8, §9

[4] = test system: HIV-1 strains geno-phenotypically resistant to EFV; assay: p24 production susceptibility test, Table 7, MT-2 cells; assay type: cell-based; conditions: for EC50: Human immunodeficiency virus 1, MT2, MT-2, read-out: E.C.50 CQ; for S.I. CQ / Fen. CQ (fold): MT-2; for S.I. CQ: I.C.50/E.C.50; for Fen. CQ (fold): ratio to HIV-IIIB
Description: as §1, §2, §3, §4, §5, §6, §7, §8, §9

[5] = test system: HIV-1 clinical isolated, characterised by mutations on the protease gene inducing geno-phenotypic resistance to NFV; assay: p24 production susceptibility test (ACTG protocol), Table 10, PBMC; assay type: cell-based; conditions: for S.I. CQ: I.C.50/E.C.50; for Fen. CQ (fold): ratio to HIV-IIIB; for EC50: Human immunodeficiency virus 1, PBMC, read-out: E.C.50 CQ
Description: as §1, §2, §3, §4, §5, §6, §7, §8, §9

[6] = test system: HIV-1 strains cultivated in PBMC and isolated from patient naive to the treatment; assay: p24 production susceptibility test (ACTG protocol), Table 11; assay type: cell-based; conditions: for EC50: Human immunodeficiency virus 1, PBMC; for S.I. CQ: I.C.50/E.C.50
Description: as §2, §3, §4, §5, §6, §7, §8, §9

[7] = test system: viruses resistant to both reverse transcriptase and protease inhibitors; assay: p24 production susceptibility test, summary for resistant viruses; assay type: cell-based, HIV-1; conditions: Human immunodeficiency virus 1, range
Description: as §2, §3
The supernatant of the infected cultures (either in absence or in presence of different concentrations of chemotherapic) were tested for the production of p24 after 7 days, using an ELISA test which is commercially available. […]
as §6, §7

[8] = Gen M4IL M184V L210W R211KL 214F T215Y
[9] = Gen. K65R F77L Y115F Q151M M184V
[10] = Gen. K65R S68G F77L Y115F Q151M M184V
[11] = Gen. M41L D67N M184V L210W T215Y

## CCN(CC)CCCC(C)Nc1ccnc2cc(Cl)ccc12 (stereo not drawn) [CQ, chloroquine]
[1]; Gen D67N K70R M184V T215Y
  EC50: 2500 nM
  S.I. CQ: 4.5
  Fen. CQ (fold): 1.5X fold
[1]; Gen D67N K70R T215F K70R
  EC50: 3000 nM
  S.I. CQ: 3
  Fen. CQ (fold): 1.3X fold
[1]; Gen K70R T215F K219Q
  EC50: 1800 nM
  S.I. CQ: 5.5
  Fen. CQ (fold): 0.7X fold
[1]; [8]
  EC50: 2000 nM
  S.I. CQ: 4.5
  Fen. CQ (fold): 1.1X fold
[1]; Gen M41I T215F
  EC50: 2000 nM
  S.I. CQ: 4
  Fen. CQ (fold): 1.1X fold
[1]; Gen M41L D67N K70R M184V T215Y
  EC50: 2500 nM
  S.I. CQ: 3.6
  Fen. CQ (fold): 1.3X fold
[1]; Gen M41L D67N K70R T215Y
  EC50: 3000 nM
  S.I. CQ: 3.2
  Fen. CQ (fold): 1.2X fold
[2]; [9]
  EC50: 3500 nM
  S.I. CQ: 3.4
  Fen. CQ (fold): 2.3X fold
[2]; Gen. K65R F116Y Q151M
  EC50: 3500 nM
  S.I. CQ: 3.4
  Fen. CQ (fold): 2.3X fold
[2]; Gen. M41I T69SSS T215Y
  EC50: 2800 nM
  S.I. CQ: 3.4
  Fen. CQ (fold): 1.8X fold
[2]; Gen. T69SSS T215Y
  EC50: 2800 nM
  S.I. CQ: 3.4
  Fen. CQ (fold): 1.8X fold
[2]; Gen. V75I F77L F116Y Q151M
  EC50: 2200 nM
  S.I. CQ: 3
  Fen. CQ (fold): 1.5X fold
[3]; Gen. K65R L74V M184V
  EC50: 1800 nM
  S.I. CQ: 5.5
  Fen. CQ (fold): 1.2X fold
[3]; [10]
  EC50: 2500 nM
  S.I. CQ: 3.6
  Fen. CQ (fold): 1.6X fold
[3]; Gen. L74V M184F
  EC50: 1800 nM
  S.I. CQ: 5.5
  Fen. CQ (fold): 1.2X fold
[3]; Gen. L74V Y115F M184V
  EC50: 2200 nM
  S.I. CQ: 4
  Fen. CQ (fold): 1.2X fold
[3]; [11]
  EC50: 2200 nM
  S.I. CQ: 4
  Fen. CQ (fold): 1.4X fold
[4]; Gen. K101D K103N
  EC50: 2800 nM
  S.I. CQ: 7.8
  Fen. CQ (fold): 1.8X fold
[4]; Gen. K103N V108D
  EC50: 2200 nM
  S.I. CQ: 6.8
  Fen. CQ (fold): 1.4X fold
[4]; Gen. K103N Y181C
  EC50: 2500 nM
  S.I. CQ: 8
  Fen. CQ (fold): 1.6X fold
[4]; Gen. K103N
  EC50: 2200 nM
  S.I. CQ: 8.5
  Fen. CQ (fold): 1.4X fold
[4]; Gen. L100I K103N
  EC50: 3200 nM
  S.I. CQ: 6.2
  Fen. CQ (fold): 2.1X fold
[4]; Gen. Y181C
  EC50: 1800 nM
  S.I. CQ: 8.5
  Fen. CQ (fold): 1.2X fold
[5]; Gen. D30N A71V
  S.I. CQ: 5.5
  Fen. CQ (fold): 1X fold
  EC50: 1800 nM
[5]; Gen. D30N M46V A71V
  S.I. CQ: 4
  Fen. CQ (fold): 1.2X fold
  EC50: 2200 nM
[5]; Gen. G48V V92A
  S.I. CQ: 3.2
  Fen. CQ (fold): 1.6X fold
  EC50: 3000 nM
[5]; Gen. V82F L90M
  S.I. CQ: 3.4
  Fen. CQ (fold): 1.5X fold
  EC50: 2800 nM
[6]; HIV-1 virus sensitive to the anti-retroviral treatment, range over each experiment, read-out: E.C.50
  EC50: 1500 to 3500 nM
[6]; PBMC, Virus N°1, read-out: E.C.50 CQ
  EC50: 1500 nM
[6]; PBMC, Virus N°2, read-out: E.C.50 CQ
  EC50: 2200 nM
[6]; PBMC, Virus N°3, read-out: E.C.50 CQ
  EC50: 1800 nM
[6]; PBMC, Virus N°4, read-out: E.C.50 CQ
  EC50: 2500 nM
[6]; PBMC, Virus N°5, read-out: E.C.50 CQ
  EC50: 2000 nM
[6]; PBMC, Virus N°1
  S.I. CQ: 5
[6]; PBMC, Virus N°2
  S.I. CQ: 4
[6]; PBMC, Virus N°3
  S.I. CQ: 5
[6]; PBMC, Virus N°4
  S.I. CQ: 3.5
[6]; PBMC, Virus N°5
  S.I. CQ: 4
[7]
  EC50: 1500 to 3500 nM
